Experimental data: paper PMC8320612 (Current Research in Toxicology, 2021)

How the values were obtained:
[1] = molecular target: T1, thyroid peroxidase (TPO), rat thyroid microsomes (Rattus norvegicus, UniProt P14650); test: TPO activity assay, MIT to DIT monoiodination, LC-MS/MS; assay type: biochemical; conditions: result in words
T1 sequence (P14650 32-914): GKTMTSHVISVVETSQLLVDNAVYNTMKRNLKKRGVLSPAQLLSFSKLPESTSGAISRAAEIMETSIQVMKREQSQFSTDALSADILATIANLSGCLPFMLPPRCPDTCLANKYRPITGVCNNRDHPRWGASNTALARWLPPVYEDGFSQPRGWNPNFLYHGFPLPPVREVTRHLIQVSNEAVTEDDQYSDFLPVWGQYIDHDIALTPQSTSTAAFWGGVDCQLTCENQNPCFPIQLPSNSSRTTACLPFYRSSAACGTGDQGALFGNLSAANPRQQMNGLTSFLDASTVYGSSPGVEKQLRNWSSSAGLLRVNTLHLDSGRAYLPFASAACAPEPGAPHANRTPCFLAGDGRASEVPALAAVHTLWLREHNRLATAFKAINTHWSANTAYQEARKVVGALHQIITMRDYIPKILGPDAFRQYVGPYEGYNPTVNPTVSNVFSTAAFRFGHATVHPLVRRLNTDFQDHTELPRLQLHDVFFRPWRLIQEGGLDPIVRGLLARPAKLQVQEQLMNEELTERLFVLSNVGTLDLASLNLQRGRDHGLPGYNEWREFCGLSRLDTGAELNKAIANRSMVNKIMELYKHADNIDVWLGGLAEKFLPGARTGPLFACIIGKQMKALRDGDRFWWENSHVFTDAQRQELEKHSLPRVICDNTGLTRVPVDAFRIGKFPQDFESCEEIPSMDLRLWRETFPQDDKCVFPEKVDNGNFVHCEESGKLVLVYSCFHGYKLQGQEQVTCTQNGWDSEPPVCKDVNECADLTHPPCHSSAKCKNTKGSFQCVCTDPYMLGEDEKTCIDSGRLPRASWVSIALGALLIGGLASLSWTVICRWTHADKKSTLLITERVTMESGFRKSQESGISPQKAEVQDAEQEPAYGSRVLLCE

[2] = molecular target: T1, thyroid peroxidase (TPO), rat thyroid microsomes; test: Battery of TPO assays, summary of IC50 across reactions; assay type: biochemical

IC50 [2]: 19.7 to 57.3 µM
Compound: O=c1c(-c2ccc(O)cc2)coc2cc(O)ccc12 [DZN, Daidzein]
Effect on MIT to DIT iodination [1]: no adverse effects
